# Experimental data published in patent US4386103A, “Dichloroamino acid derivatives useful as potent germicidal and fungicidal agents” (Merck & Co., Inc., priority 1981, dated 1983).
# Key:
# Assay type in all cases: cell-based
# Salmonella typhimurium = assay: Contact germicidal screen, Salmonella typhimurium ATCC No. 13311
# Procedure: (§1) The organisms used in the contact germicidal screen are all maintained as stock cultures on nutrient agar […] 4° C. They are transferred and biochemically diagnosed monthly. The five organisms used are: The media used are: […] Overnight cultures of the test organisms are grown in tryptose phosphate broth. After 15-16 hours, the cultures are centrifuged at […] for 15 minutes, and the supernatant replaced with fresh warm (37° C.) media. After two hours of incubation, the absorbance of the culture at 650 nm is determined and diluted with nutrient broth to 1×10^7 colony forming units per ml (using a previous determined standard curve: colony forming units/ml vs. absorbance at 650). The diluted cultures are maintained at 4°-8° C. throughout the screen. The compounds are weighed into sterile 100 ml volumetric flasks, and immediately before screening dissolved in one of the following buffers: 0.1 M NaOAc pH 4.6 or 0.1 M NaH2 PO4 pH 7.0. If solubility poses a problem, 10-30% methanol is used to effect solution. Two denaturing agents are also tested: […] Horse Serum restored with 100 ml distilled water and 10% Trition×100. When used, 2.5 ml of the denaturing agent is mixed with 2.5 ml of double strength test solution thirty minutes before the bacterial suspension is added. The screen is initiated when 0.2 ml of the bacterial suspension is added to 5.0 ml of the test solution contained in a sterile 25 ml glass stoppered flask. At intervals of 0.5, 2.5, 5.0, 10.0 and 15.0 minutes, a loopful of the inoculated test solution is subcultured into 5 ml of sterile nutrient broth and mixed with a vortex, the high dilution serving to stop the action of the compound. All of the subculture tubes are incubated at 37° C. and checked for signs of growth by turbidity at 1, 3, 5 and 7 days. The earliest subculture time at which no growth is present is considered the endpoint and is recorded as the sterilization time. An aliquot of 0.2 ml of the diluted culture is transferred to 5 ml of buffer to simulate 0.2 ml in 5 ml of test solution. (a) Purity: A loopful of the inoculated buffer is streaked onto nutrient agar to check colony morphology and lack of contaminants. (b) Viability: A loopful of the inoculated buffer is subcultured to 5 ml of nutrient broth as in the screen and incubated at 37° C. for 24 hours. (c) Dilution of the Test Solution: A loopful of the test solution is transferred to a 5 ml tube of nutrient broth, and a loopful of the inoculated buffer is transferred to the same tube of broth. […] (d) Purity of Organisms in the Test Solution: After the 15 minute subculture, a loopful of the inoculated test solution is streaked onto nutrient agar to insure that contamination has not occurred during the screen. (e) lack of Bactericidal Activity of Buffers and Other Solvents: Before a buffer or other solvent is used as a diluent, it is screened against the five organisms to insure that the buffer or solvent has no antibacterial activity itself.
# [1] = system: Staphylococcus epidermidis; assay: Contact germicidal screen, Staphylococcus epidermidis ATCC No. 12228
# Procedure: as §1
# Candida albican = assay: Contact fungicidal screen, Candida albican; settings: 0.1M NaOAc pH 4.6
# Procedure: The organisms used in the Contact Fungicidal Screen are a dermatophyte, trychophyton mentagrophytes, frequently associated with athlete's foot; a yeast, Candida albican, causative agent of thrush and vaginitis; a phycomycete, Rhizopus oryzae, commonly known as black bread mold; an ascomycete, Aspergillus fumagatis, found in chicken droppings and causing lung infections; and another dermatophyte, Microsporum canis, which causes ringworm. These organisms are maintained as stock cultures at 4° C. on agar slants of the following composition: dextrose 2%, Neopeptone (Difco) 1%, agar 2%. Fluid medium of the same nutrient composition (without agar) was used to test the viability of the organisms after exposure to the fungicide. This medium is also known as Sabouraud's medium.
# The Candida albican is grown in Sabouraud's liquid medium at 25°-30° C. for three days. At the end of the incubation period the cell suspension is centrifuged at 200 G and washed with sterile physiological saline (0.85% NaCl). The density of the cell suspension is determined by counting in a hemacytometer. The suspension is stored a 4° C. until it is used, at which time it is diluted with sterile physiological saline to a density of 5×10^6 cells per ml.
# The compounds are weighed into heat sterilized 100 ml volumetric flasks and immediately before screening dissolved in 0.1 M NaOAc pH 4.6 buffer (test solutions).
# The Aspergillus, Candida, Microsporum and Rhizopus species are screened in a slightly different manner. Basically, the procedure for the Contact Germicidal Efficiency Screen is utilized. After the test solutions are made up, 5 ml aliquots are pipetted into heat sterilized 25 ml glass stoppered erlenmeyer flasks. The screen is initiated when 0.5 ml of the 5×10^6 cell (spore) per ml suspension is added to the flask containing 5 ml of the test solution. At intervals of 0.5, 2.5, 5.0, 10.0 and 15.0 minutes, a 4 mm loopful of the inoculated test solution is subcultured into 7 mL of sterile fluid Sabouraud's medium and mixed on a vortex, the high dilution serving to stop the action of the compound. The subculture tubes are incubated at 25°-30° C. for ten days with daily observation for mycelial growth. The earliest subculture time at which no growth is present is considered the endpoint and is recorded as the sterilization time.
# To insure the viability of the culture, a 0.5 ml aliquot of the 5×10^6 cells (spores) per ml suspension is transferred to 5 ml of the pH 4.6 buffer. A loopful of the inoculated buffer is then subcultured to 7 ml of fluid Sabouraud's medium and incubated at 25°-30° C. for ten days. To insure that the dilution of the test solution into the subculture medium does stop the action, a loopful of the test solution and a loopful of the inoculated buffer are transferred into the same subculture tube. This tube is also incubated at 25°-30° C. for ten days.
# [2] = 10.0+ PPM, 0.1M NaOAc pH 4.6, screened simultaneously with four other compounds
# [3] = 291.4 PPM, Triton X100 (10% solution):pH 4.6 buffer 1:1
# [4] = 291.4 PPM, horse serum:pH 4.6 buffer 1:1
# [5] = 300 PPM with 50% Horse Serum, 0.1M NaOAc pH 4.6
# [6] = 300 PPM with 50% Triton X100, 0.1M NaOAc pH 4.6
# [7] = 1000 PPM with 50% Horse Serum, 0.1M NaOAc pH 4.6
# [8] = 1024.4 PPM, 0.1M NaH2PO4 pH 7.0
# [9] = 1042.0 PPM, horse serum:pH 4.6 buffer 1:1
# [10] = 308.0 PPM, Triton X100 (10% solution):pH 4.6 buffer 1:1
# [11] = 338.7 PPM, horse serum:pH 4.6 buffer 1:1
# [12] = 1024.0 PPM, horse serum:pH 4.6 buffer 1:1
# [13] = 1070.3 PPM, 0.1M NaH2PO4 pH 7.0
compound,measurement,setting,value
"CC(C)(COC(=O)CCCC(=O)O)N(Cl)Cl [(V), 2-dichloramino-2-methylpropyl-hemiglutarate]",Sterilization Time,Salmonella typhimurium; [2],2.5 min
same,Sterilization Time,"Salmonella typhimurium; 10.0 PPM, 0.1M NaH2PO4 pH 7.0",15 min
same,Sterilization Time (summary),"Salmonella typhimurium; 10 PPM, 0.1M NaOAc pH 4.6",2.5 min
same,Sterilization Time,"Salmonella typhimurium; 10.0 PPM, 0.1M NaOAc pH 4.6",5.0 min
same,Sterilization Time,"Salmonella typhimurium; 99.1 PPM, 0.1M NaOAc pH 4.6",0.5 min
same,Sterilization Time (summary),"Salmonella typhimurium; 100 PPM, 0.1M NaOAc pH 4.6",0.5 min
same,Sterilization Time,"Salmonella typhimurium; 106.7 PPM, 0.1M NaH2PO4 pH 7.0",15 min
same,Sterilization Time,Salmonella typhimurium; [3],0.5 min
same,Sterilization Time,Salmonella typhimurium; [4],10.0 min
same,Sterilization Time (summary),Salmonella typhimurium; [5],10.0 min
same,Sterilization Time (summary),Salmonella typhimurium; [6],0.5 min
same,Sterilization Time,"Salmonella typhimurium; 911.8 PPM, 0.1M NaOAc pH 4.6",0.5 min
same,Sterilization Time (summary),Salmonella typhimurium; [7],2.5 min
same,Sterilization Time (summary),"Salmonella typhimurium; 1000 PPM, 0.1M NaOAc pH 4.6",0.5 min
same,Sterilization Time,Salmonella typhimurium; [8],5.0 min
same,Sterilization Time,Salmonella typhimurium; [9],2.5 min
same,Sterilization Time,[1]; [2],10.0 min
same,Sterilization Time,"[1]; 10.0 PPM, 0.1M NaH2PO4 pH 7.0",15 min
same,Sterilization Time (summary),"[1]; 10 PPM, 0.1M NaOAc pH 4.6",10.0 min
same,Sterilization Time,"[1]; 10.0 PPM, 0.1M NaOAc pH 4.6",10.0 min
same,Sterilization Time,"[1]; 99.1 PPM, 0.1M NaOAc pH 4.6",2.5 min
same,Sterilization Time (summary),"[1]; 100 PPM, 0.1M NaOAc pH 4.6",2.5 min
same,Sterilization Time,"[1]; 106.7 PPM, 0.1M NaH2PO4 pH 7.0",15 min
same,Sterilization Time,[1]; [3],2.5 min
same,Sterilization Time,[1]; [4],15 min
same,Sterilization Time (summary),[1]; [5],15 min
same,Sterilization Time (summary),[1]; [6],2.5 min
same,Sterilization Time,"[1]; 911.8 PPM, 0.1M NaOAc pH 4.6",0.5 min
same,Sterilization Time (summary),[1]; [7],2.5 min
same,Sterilization Time (summary),"[1]; 1000 PPM, 0.1M NaOAc pH 4.6",0.5 min
same,Sterilization Time,[1]; [8],10.0 min
same,Sterilization Time,[1]; [9],2.5 min
same,Sterilization Time,Candida albican; 10 PPM,15 min
same,Sterilization Time,Candida albican; 100 PPM,15 min
same,Sterilization Time,Candida albican; 1000 PPM,0.5 min
"CC(C)(COC(=O)CCC(=O)O)N(Cl)Cl [(IV), 2-Dichloroamino-2-methylpropylhemisuccinate]",Sterilization Time,"Salmonella typhimurium; 8.6 PPM, 0.1M NaOAc pH 4.6",5.0 min
same,Sterilization Time,"Salmonella typhimurium; 9.8 PPM, 0.1M NaH2PO4 pH 7.0",15 min
same,Sterilization Time,Salmonella typhimurium; [2],2.5 min
same,Sterilization Time (summary),"Salmonella typhimurium; 10 PPM, 0.1M NaOAc pH 4.6",2.5 min
same,Sterilization Time (summary),"Salmonella typhimurium; 100 PPM, 0.1M NaOAc pH 4.6",0.5 min
same,Sterilization Time,"Salmonella typhimurium; 106.2 PPM, 0.1M NaOAc pH 4.6",0.5 min
same,Sterilization Time,"Salmonella typhimurium; 149.7 PPM, 0.1M NaH2PO4 pH 7.0",15.0 min
same,Sterilization Time (summary),Salmonella typhimurium; [5],10.0 min
same,Sterilization Time (summary),Salmonella typhimurium; [6],0.5 min
same,Sterilization Time,Salmonella typhimurium; [10],0.5 min
same,Sterilization Time,Salmonella typhimurium; [11],10.0 min
same,Sterilization Time (summary),Salmonella typhimurium; [7],2.5 min
same,Sterilization Time (summary),"Salmonella typhimurium; 1000 PPM, 0.1M NaOAc pH 4.6",0.5 min
same,Sterilization Time,"Salmonella typhimurium; 1008.0 PPM, 0.1M NaOAc pH 4.6",0.5 min
same,Sterilization Time,Salmonella typhimurium; [12],2.5 min
same,Sterilization Time,Salmonella typhimurium; [13],0.5 min
same,Sterilization Time,"[1]; 8.6 PPM, 0.1M NaOAc pH 4.6",15.0 min
same,Sterilization Time,"[1]; 9.8 PPM, 0.1M NaH2PO4 pH 7.0",15 min
same,Sterilization Time,[1]; [2],10.0 min
same,Sterilization Time (summary),"[1]; 10 PPM, 0.1M NaOAc pH 4.6",10.0 min
same,Sterilization Time (summary),"[1]; 100 PPM, 0.1M NaOAc pH 4.6",2.5 min
same,Sterilization Time,"[1]; 106.2 PPM, 0.1M NaOAc pH 4.6",2.5 min
same,Sterilization Time,"[1]; 149.7 PPM, 0.1M NaH2PO4 pH 7.0",15 min
same,Sterilization Time (summary),[1]; [5],15 min
same,Sterilization Time (summary),[1]; [6],2.5 min
same,Sterilization Time,[1]; [10],2.5 min
same,Sterilization Time,[1]; [11],15 min
same,Sterilization Time (summary),[1]; [7],2.5 min
same,Sterilization Time (summary),"[1]; 1000 PPM, 0.1M NaOAc pH 4.6",0.5 min
same,Sterilization Time,"[1]; 1008.0 PPM, 0.1M NaOAc pH 4.6",0.5 min
same,Sterilization Time,[1]; [12],2.5 min
same,Sterilization Time,[1]; [13],10.0 min
same,Sterilization Time,Candida albican; 10 PPM,15 min
same,Sterilization Time,Candida albican; 100 PPM,15 min
same,Sterilization Time,Candida albican; 1000 PPM,2.5 min
